Tests used:
[1] = system: LOLRI; experiment: Post-emergence application in field trials (Examples 2 and 3); assay type: in vivo, Lolium rigidum; conditions: growth stage 12-22, A-1 solo 25 g ai/ha, 14 DAT, 1% v/ MSO
Protocol: (§1) In the examples below, using the method of S. R. Colby (1967) “Calculating synergistic and antagonistic responses of herbicide combinations”, Weeds 15, p. 22ff., the value E, which is expected if the activity of the individual active compounds is only additive, was calculated.
(§2) [formula] • where • X=percent activity using active herbicide A at an application rate a; • Y=percent activity using active saflufenacil at an application rate b; • E=expected activity (in %) by A+B at application rates a+b.
(§3) If the value found experimentally is higher than the value E calculated according to Colby, a synergistic effect is present.
(§4) On field test sites, natural weed infestation or seeded weeds were treated post-emergence of the weeds.
(§5) For the post emergence treatment, the weedy plants were treated as indicated below. The herbicidal compositions were, together with the adjuvant(s) as indicated, suspended or emulsified in water (200 l/ha unless indicated otherwise) as distribution medium and sprayed with commercial flat fan nozzles.
(§6) In the following experiments, the herbicidal activity for the individual herbicidal compositions (solo and mixture applications) was assessed the indicated days after treatment (DAT). The assessments for the damage on undesired weeds caused by the composition was carried out using a scale from 0 to 100%, compared to the untreated control plants. […]

[2] = system: HORVS* (non-PPOi herbicide tolerant); experiment: as above; assay type: in vivo, Hordeum vulgare; conditions: 1% v/v MSO
Protocol: as §1, §2, §3, §4, §5
(§7) In the following experiments, the herbicidal activity for the individual herbicidal compositions (solo and mixture applications) was assessed the indicated days after treatment (DAT). The assessments for the damage on undesired weeds caused by the composition was carried out using a scale from 0 to 100%, compared to the untreated control plants. Here, 0 means no damage and 100 means complete destruction of the plants.
(§8) For the post emergence treatment, the weedy plants were treated as indicated below. The herbicidal compositions were, together with the adjuvant(s) as indicated, suspended or emulsified in water (200 I/ha unless indicated otherwise) as distribution medium and sprayed with commercial flat fan nozzles.

[3] = system: AVEFA; experiment: as above; assay type: in vivo, Avena fatua; conditions: 1% v/v MSO
Protocol: as §1, §2, §3, §4, §5, §7, §8

[4] = system: SETFA; experiment: Post-emergence application in greenhouse trials; assay type: in vivo, Setaria faberi; conditions: 7 DAT, growth stage 13, 1% MSO
Protocol: as §1, §2, §3
(§9) The culture containers used were plastic pots containing loamy sand with approximately 3.0% of humus as substrate. The seeds of the test plants were sown separately for each species.
(§10) For the post-emergence treatment, the test plants were grown to a plant height of from 3 to 15 cm, depending on the plant habit, and only then treated with the active compounds which had been suspended or emulsified in water. To this end, the test plants were either sown directly, and grown in the same containers, or they were first grown separately as seedlings and transplanted into the test containers a few days prior to treatment.
(§11) Depending on the species, the plants were kept at 10-25° C. and 20-35° C., respectively.
(§12) The test period extended over 2 to 4 weeks. During this time, the plants were tended and their response to the individual treatments was evaluated.
(§13) Evaluation was carried out using a scale from 0 to 100. 100 means no emergence of the plants, or complete destruction of at least the above-ground parts, and 0 means no damage or normal course of growth. A good herbicidal activity is given at values of at least 70, and very good herbicidal activity is given at values of at least 85.
(§14) Unless indicated otherwise, herbicide A and saflufenacil were formulated (50 g/I) and applied with addition of 1% MSO (methylated seed oil) as adjuvant. In the greenhouse trials, the solvent used was water (200 I/ha).

[5] = system: ERICA; experiment: Post-emergence application in field trials (Examples 2 and 3); assay type: in vivo, Erigeron canadensis; conditions: 21 DAT
Protocol: as §1, §2, §3, §4, §5, §7, §8

[6] = system: ERISS; experiment: as above; assay type: in vivo, Erigeron sp.; conditions: 14 DAT, height 30-50 cm, 0.5% v/v MSO
Protocol: as §1, §2, §3, §4, §5, §7, §8

[7] = system: BRADC; experiment: Post-emergence application in greenhouse trials; assay type: in vivo, Brachiaria decumbens; conditions: growth stage 12, saflufenacil as commercial 342 g/l SC formulation
Protocol: as §1, §2, §3, §9, §10, §11, §12, §13, §14

[8] = system: SORVU* (non-PPOi herbicide tolerant); experiment: Post-emergence application in field trials (Examples 2 and 3); assay type: in vivo, Sorghum vulgare
Protocol: as §1, §2, §3, §4, §5, §7, §8

[9] = system: CYPES; experiment: as above; assay type: in vivo, Cyperus esculentus; conditions: A-1 12.5 g ai/ha, 21 DAT, height 15-23 cm, 140 l/ha water, 1% MSO + 2.5% ammoniumsulfate
Protocol: as §1, §2, §3, §4, §5, §6

[10] = system: ZEAMX* (non-PPOi herbicide tolerant); experiment: as above; assay type: in vivo, Zea mays; conditions: 21 DAT
Protocol: as §1, §2, §3, §4, §5, §7, §8

[11] = system: ALOMY; experiment: Post-emergence application in greenhouse trials; assay type: in vivo, Alopercurus myosuroides; conditions: A-1 3.12 g ai/ha, 7 DAT, growth stage 21, saflufenacil as commercial 342 g/l SC formulation
Protocol: as §1, §2, §3, §9
For the post-emergence treatment, the test plants were grown to a plant height of from 3 to 15 cm, depending on the plant habit, and only then treated with the active compounds which had been suspended or emulsified in water. To this end, the test plants were either sown directly, and grown in the same containers, or they were first grown separately as seedlings and transplanted into the test containers a few days prior to treatment. […]
The test period extended over 2 to 4 weeks. During this time, the plants were tended and their response to the individual treatments was evaluated. […]

[12] = system: LAMAN; experiment: Post-emergence application in field trials (Examples 2 and 3); assay type: in vivo, Lamium amplexicaule; conditions: height 3-18 cm, A-1 solo 25 g ai/ha, 21 DAT, 1% v/v MSO and 1% AMS (ammonium sulfate)
Protocol: as §1, §2, §3, §4, §5, §6

[13] = system: ECHCG; experiment: Post-emergence application in greenhouse trials; assay type: in vivo, Echinocloa crus-galli; conditions: A-1 1.56 g ai/ha, growth stage 13, saflufenacil as commercial 342 g/l SC formulation
Protocol: as §1, §2, §3, §9, §10, §11, §12, §13, §14

[14] = system: SETIT; experiment: Post-emergence application in field trials (Examples 2 and 3); assay type: in vivo, Setaria italica; conditions: height 21-31 cm, A-1 solo 40 g ai/ha, 22 DAT, 1% v/v MSO
Protocol: as §1, §2, §3, §4, §5, §6

SMILES: CCOC(=O)COc1ccccc1Oc1nc(-n2c(=O)cc(C(F)(F)F)n(C)c2=O)c(F)cc1Cl [A-1, ethyl 2-[2-[[3-chloro-5-fluoro-6-[3-methyl-2,6-dioxo-4-(trifluoromethyl)pyrimidin-1-yl]-2-pyridyl]oxy]phenoxy]acetate]
- % Herbicidal activity [1]: 85%
- % Herbicidal activity ([2]; A-1 18 g ai/ha, 29 DAT, growth stage 15-24, height 25-45 cm, field, 100 l/ha water): 73%
- % Herbicidal activity ([2]; HORVS* (non-PPOi herbicide tolerant), growth stage 15, height 31-43 cm, A-1 solo 12.5 g ai/ha, 16 DAT): 72%
- % Herbicidal activity ([2]; HORVS* (non-PPOi herbicide tolerant), growth stage 15, height 31-43 cm, A-1 solo 50 g ai/ha, 16 DAT): 96%
- % Herbicidal activity ([3]; A-1 18 g ai/ha, 28 DAT, growth stage 14-15, height 9-16 cm, field, 100 l/ha water): 83%
- % Herbicidal activity ([3]; A-1 18 g ai/ha, 29 DAT, growth stage 14-23, height 24-40 cm, field, 100 l/ha water): 80%
- % Herbicidal activity ([3]; AVEFA, growth stage 15-16, height 25-38 cm, A-1 solo 12.5 g ai/ha, 16 DAT): 90%
- % Herbicidal activity ([3]; AVEFA, growth stage 15-16, height 25-38 cm, A-1 solo 25 g ai/ha, 16 DAT): 95%
- % Herbicidal activity ([3]; AVEFA, growth stage 15-16, height 25-38 cm, A-1 solo 50 g ai/ha, 16 DAT): 98%
- % Herbicidal activity ([4]; A-1 0.2 g ai/ha): 35%
- % Herbicidal activity ([4]; A-1 0.3 g ai/ha): 55%
- % Herbicidal activity ([4]; A-1 0.4 g ai/ha): 65%
- % Herbicidal activity ([4]; A-1 0.5 g ai/ha): 80%
- % Herbicidal activity ([5]; A-1 6.25 g ai/ha, height 12.5-25 cm, field, 140 l/ha water, 1% MSO + 2.5% ammoniumsulfate): 7%
- % Herbicidal activity ([5]; A-1 12.5 g ai/ha, height 12.5-25 cm, field, 140 l/ha water, 1% MSO + 2.5% ammoniumsulfate): 17%
- % Herbicidal activity ([5]; ERICA, height 5-10 cm, A-1 solo 25 g ai/ha, 1% v/v MSO and 1% AMS (ammonium sulfate)): 60%
- % Herbicidal activity ([6]; A-1 25 g ai/ha): 13%
- % Herbicidal activity ([6]; A-1 50 g ai/ha): 18%
- % Herbicidal activity ([7]; A-1 1.56 g ai/ha, 21 DAT): 75%
- % Herbicidal activity ([7]; A-1 3.12 g ai/ha, 7 DAT): 85%
- % Herbicidal activity ([7]; A-1 3.12 g ai/ha, 21 DAT): 85%
- % Herbicidal activity ([8]; A-1 50 g ai/ha, 25 DAT, growth stage 14-15, field, 0.25 l/ha Dash MSO Max ®): 93%
- % Herbicidal activity ([8]; SORVU* (non-PPOi herbicide tolerant), height 21-31 cm, A-1 solo 30 g ai/ha, 22 DAT, 1% v/v MSO): 96%
- % Herbicidal activity [9]: 47%
- % Herbicidal activity ([10]; A-1 12.5 g ai/ha, growth stage 15, 1% v/v MSO and 1% w/v ammoniumsulfate): 40%
- % Herbicidal activity ([10]; A-1 25 g ai/ha, growth stage 15, 1% v/v MSO and 1% w/v ammoniumsulfate): 83%
- % Herbicidal activity ([10]; A-1 50 g ai/ha, growth stage 18, 0.5% MSO): 92%
- % Herbicidal activity [11]: 70%
- % Herbicidal activity [12]: 93%
- % Herbicidal activity ([13]; 7 DAT): 70%
- % Herbicidal activity ([13]; 21 DAT): 55%
- % Herbicidal activity [14]: 83%
